± gives the expanded uncertainty stated by the source.
Details: Liquid, Closed cell (Static) method

Row | SMILES | vapor or sublimation pressure (278.15 K) [kPa] | vapor or sublimation pressure (283.15 K) [kPa] | vapor or sublimation pressure (288.15 K) [kPa] | vapor or sublimation pressure (293.15 K) [kPa] | vapor or sublimation pressure (298.15 K) [kPa] | vapor or sublimation pressure (303.15 K) [kPa] | vapor or sublimation pressure (308.15 K) [kPa] | vapor or sublimation pressure (313.15 K) [kPa] | vapor or sublimation pressure (318.15 K) [kPa] | vapor or sublimation pressure (323.15 K) [kPa]
1 | CC12CCC(CC1)C(C)(C)O2 [1,3,3-trimethyl-2-oxabicyclo[2.2.2]octane] | 0.071 ± 0.002 | 0.093 ± 0.002 | 0.13 ± 0.002 | 0.178 ± 0.003 | 0.253 ± 0.003 | 0.346 ± 0.004 | 0.477 ± 0.006 | 0.627 ± 0.007 | 0.828 ± 0.009 | 1.101 ± 0.011
2 | CCO [ethanol] | 2.264 ± 0.021 | 3.147 ± 0.024 | 4.327 ± 0.032 | 5.876 ± 0.04 | 7.798 ± 0.051 | 10.41 ± 0.066 | 13.71 ± 0.084 | 17.9 ± 0.1 | 23.06 ± 0.13 | 29.46 ± 0.15
